The values that follow come from patent publication US20200390755A1, “COMPOUND FOR TREATING NERVOUS SYSTEM DISEASES AND USE THEREOF” (SHAANXI MICOT TECHNOLOGY CO., LTD., priority 2018, published 2020).

Assay [1] concerns the target T1, TrkB receptor (Mus musculus, UniProt P15209).
T1 construct: The culture continued until the primary cortical neuron cells mature; endogenous in cells; host or cells: primary cortical neurons from E18 mouse embryos (N171-82Q WT male x B6C3F1/J female)
The experiment in a line: Western blotting of p-TrkB and t-TrkB in primary cortical neuron cells. It is filed as cell-based. The settings on record: 500 nM, 10 min at 37° C., Vehicle = 100, n = 3. As to the method:
N171-82Q WT male mice were mated with female B6C3F1/J hybrid mice. B6C3F1/J mice 18 days after pregnancy were anesthetized with isoflurane and dissected to remove embryos, which were then placed in a 10 cm Petri dish containing Leibovitz's buffer. The head of the embryo was cut off, and the brain was peeled off to obtain the whole mouse brain, which was then placed in a new 10 cm Petri dish containing Leibovitz's buffer. The neurocortex of the brain was separated and placed in a 15 mL centrifuge tube containing 3 mL Leibovitz's buffer. The centrifuge tube was centrifuged at 1000 rpm for 1 minute, and the Leibovitz's buffer was gently removed from the centrifuge tube, and then 750 μL of 0.25% trypsin-EDTA and 75 μL of 0.1% DNase (2000 U/mL) were added to digest at 37° C. for 15 min. 750 μL of DMEM medium containing 5% FBS was added to stop the digestion. The cells were mixed well, and centrifuged at 1000 rpm for 5 minutes. Trypins/DNase mixture was removed, and 750 μL of Neurobasal medium (B-27, Glutamax, P/S) was added. The cells were mixed by gently pipetting with a pipette for 30 times. The cell suspension was filtered with a 40 µm filter and transferred to another new 50 mL centrifuge tube. 10 μL of the cell suspension was added to 90 μL of DMEM (diluted 10 times), and 10 μL of the liquid mixture was placed on a hemocytometer so that the suspension filled between the cover slip and the counting plate for counting. The cells in the four large grids of the plate were counted, wherein for the cells across the line, only the cells on the left and upper side lines were counted. The following formulas were used:
Number of cells/mL=total number of cells in the four large grids/4×10^4/mL
Total number of cells/mL=total number of cells in the four large grids/4×10^4/mL×dilution factor.
After counting, the cells were diluted with Neurobasal selection medium so that 1 mL of Neurobasal culture medium contained 0.5×10^6 cells.
200 μL of PDL solution previously heated in a 37° C. water bath was added to each well of a 6-well plate, and incubated at 37° C. overnight to allow PDL to evenly coat the well plate. The PDL solution was absorbed and the plate was washed twice with PBS. Before use, the PBS remaining on the plate was absorbed and the cover was opened to dry the plate in a super clean bench. 2 mL of cell suspension was added to each well (37° C., 5% CO2), and the cells were cultured until adherence. The culture medium was replaced and the culture continued for 3 days, and then the growth status of neurons was observed. Every other 3 days, half of the medium was removed and replaced with fresh complete medium. The culture continued until the primary cortical neuron cells mature (usually mature on the 14th day of culture).
After the primary cortical neuron cells have matured, appropriate amount of freshly prepared culture medium was added until final volume in each well was 2 mL. The experiment included a blank control group (Vehicle), a positive control group BDNF (10 ng/mL), a control compound group (500 nM), and 6 test compound groups (500 nM). Three repeats were set for each dose. After incubating at 37° C. for 10 min, the culture solution was discarded and the cells were washed with pre-chilled PBS, and then 40 μL of pre-chilled lysate (RIPA buffer 10 mL and protease and phosphatase inhibitor 100 μL) was added to each well for lysis on ice for 30 min. After lysis, the cell was crushed by ultrasonic cell crusher, centrifuged at 14000 rpm for 20 min at 4° C. The supernatant was transferred to a new 1.5 mL centrifuge tube to extract protein. Western blotting experiments were used to detect the protein levels of (A) p-TrkB and t-TrkB; (B) p-AKT and t-AKT.
The software Sigmaplot 13.0 was used for statistical analysis of the data, and the data of each group was expressed as mean±standard error (x±SEM). […]
In general terms: In western blotting, separated proteins are transferred to a membrane and probed.

Assay [2] has as its system rats with permanent cerebral ischemia. Briefly: Neurobehavioral scoring in rats with permanent cerebral ischemia (MCAO thread plug). The settings on record: 20 mg/kg by gavage. Type of assay: in vivo, SD rats. As to the method: SD rats, male, about 220-250 g, were provided by the Experimental Animal Center of Medical College of Xi'an Jiaotong University. Rats were randomly divided into groups of 14 animals/group. The experiment included a sham group, a model group, a positive control Edaravone group and test compound groups 1-5.12 hours before the operation, the rats were fasted and were free to drink water, and then used for the modeling method of middle cerebral artery occlusion with thread plug. The rats were fixed on a wooden board after anesthesia, the common carotid artery was ligated proximally, the external carotid artery was ligated distally, and the main internal carotid artery into skull was retained. A ligature line was reserved at the bifurcation of the internal carotid artery for temporarily clamping the distal end of the internal carotid artery using an arterial clip. A 3-0 nylon thread with a length of 5 cm and a spherical shape with a diameter of 0.3 mm at the tip was inserted into the common carotid artery through a small incision at the bifurcation. The arterial clamp was loosened, and the thread plug was slowly advanced to 18˜20 mm. When there was resistance, the progress of the thread was stopped. At this time, the nylon thread plug entered the middle artery and blocked the blood flow, and then the ischemic phase began. The skin was sutured. In the sham operation group, the same procedure was executed, except that no thread plug was inserted.
Administering was performed at 0 h, 3 h, 6 h and 12 h after ischemia, and then administering was performed once a day for 7 consecutive days. The test compound was prepared into a 4 mg/mL solution with 1% CMC-Na solution and administered by gavage. The edaravone group received an intravenous dose of 0.078 mg/kg.
2) The rats were lifted at its tail about 1 foot off the ground to observe the condition of both forelimbs. The rats were placed on a level ground and pushed on both shoulders to observe the difference in resistance on both sides. The rats were placed on the ground to observe the walking. The assessment was conducted using a five-grade four-point scoring method (0 to 4 points). The higher the score, the more severe the neurobehavioral damage.
0 point: the behavior is completely normal;
1 point: when the rat is lifted at its tail off the ground, the forelimb on the opposite side of the operation rotates and folds inwardly.
2 points: when the rat is placed on a level ground and pushed on both shoulders to observe the difference in resistance on both sides, the resistance on the opposite side of the operation reduces;
3 points: when the rat is placed on the ground to the walking, it circles around the opposite side of the operation;
4 points: The injury is so severe that the rat is unable to move independently.
(2) Statistical analysis of data: SPSS18.0 statistical software was used for statistical analysis and the data of each group was expressed as the mean standard error (x±SEM). One-way ANOVA and multiple comparisons between groups were used to compare the averages of measurement data among multiple groups. Rank score test was used for behavioral grading data, and Kaplan-Meier method was used for mortality. P<0.05 was considered statistically significant.

T1 sequence (P15209 32-821): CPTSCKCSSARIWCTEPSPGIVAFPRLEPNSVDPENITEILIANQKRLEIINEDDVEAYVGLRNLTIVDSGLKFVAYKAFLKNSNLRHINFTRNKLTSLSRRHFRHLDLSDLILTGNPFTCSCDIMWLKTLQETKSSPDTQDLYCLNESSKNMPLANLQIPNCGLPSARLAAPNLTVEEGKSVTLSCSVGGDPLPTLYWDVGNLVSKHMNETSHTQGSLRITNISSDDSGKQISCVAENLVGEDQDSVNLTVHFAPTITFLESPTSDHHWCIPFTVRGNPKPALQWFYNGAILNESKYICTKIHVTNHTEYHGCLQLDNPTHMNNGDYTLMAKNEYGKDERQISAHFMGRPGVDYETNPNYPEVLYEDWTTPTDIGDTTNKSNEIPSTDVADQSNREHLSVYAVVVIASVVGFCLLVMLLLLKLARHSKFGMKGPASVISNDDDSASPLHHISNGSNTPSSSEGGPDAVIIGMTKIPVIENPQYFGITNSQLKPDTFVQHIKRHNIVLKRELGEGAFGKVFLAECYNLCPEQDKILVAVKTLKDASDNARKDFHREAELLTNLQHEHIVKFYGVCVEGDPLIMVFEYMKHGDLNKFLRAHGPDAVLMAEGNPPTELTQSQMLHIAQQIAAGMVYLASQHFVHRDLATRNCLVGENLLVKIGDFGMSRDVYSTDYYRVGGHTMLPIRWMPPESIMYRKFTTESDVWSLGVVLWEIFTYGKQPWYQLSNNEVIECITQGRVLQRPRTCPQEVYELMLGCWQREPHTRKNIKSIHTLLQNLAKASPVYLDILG

For the compound `O=c1cc(-c2ccc(N3CCCCC3)cc2)oc2c(O)c(O)ccc12` [Example 1, 7,8-dihydroxy-2-(4-(piperidin-1-yl)phenyl)-4H-chromen-4-one], the “Relative intensity of p-TrkB/t-TrkB protein” value in assay [1] worked out at 216.727 ± 8.642. Besides, the “Neurobehavioral score (0 to 4 points)” value in assay [2] (6 h after ischemia) is given as 2.07 ± 0.22; in assay [2] (1 d after ischemia) it was 2.11 ± 0.2; in assay [2] (2 d after ischemia) it was 1.88 ± 0.35; in assay [2] (3 d after ischemia) it was 2.13 ± 0.23; in assay [2] (4 d after ischemia) it was 1.88 ± 0.35; in assay [2] (5 d after ischemia) it was 2 ± 0.38. The “Neurobehavioral score (0 to 4 points)” value in assay [2] (6 d after ischemia) is reported as 1.86 ± 0.34; in assay [2] (7 d after ischemia) it was 1.17 ± 0.17.

For `COc1ccc2c(=O)cc(-c3ccc(N4CCCCC4)cc3)oc2c1OC` [Example 2, 7,8-dimethoxy-2-(4-(piperidin-1-yl)phenyl)-4H-chromen-4-one], the “Relative intensity of p-TrkB/t-TrkB protein” value in assay [1] was determined as 206.453 ± 7.574. Also, the “Neurobehavioral score (0 to 4 points)” value stood at 2.13 ± 0.17 in assay [2] (6 h after ischemia); 2.04 ± 0.13 in assay [2] (1 d after ischemia); 2.20 ± 0.25 in assay [2] (2 d after ischemia); 1.98 ± 0.45 in assay [2] (3 d after ischemia); 1.87 ± 0.27 in assay [2] (4 d after ischemia); 2.11 ± 0.16 in assay [2] (5 d after ischemia). For the same compound, the entries for the “Neurobehavioral score (0 to 4 points)” value in assay [2] (6 d after ischemia) and in assay [2] (7 d after ischemia) were 1.79 ± 0.28 and 1.21 ± 0.22, respectively.

With `CN(C)C1CCN(c2ccc(-c3cc(=O)c4ccc(O)c(O)c4o3)cc2)CC1` [Example 3, 2-(4-(4-(dimethylamino)piperidin-1-yl)phenyl)-7,8-dihydroxy-4H-chromen-4-one], the “Relative intensity of p-TrkB/t-TrkB protein” value in assay [1] turned out to be 234.685 ± 14.695. Further, the “Neurobehavioral score (0 to 4 points)” value is on record as 1.98 ± 0.25 in assay [2] (6 h after ischemia); 2.23 ± 0.34 in assay [2] (1 d after ischemia); 1.91 ± 0.26 in assay [2] (2 d after ischemia); 1.87 ± 0.33 in assay [2] (3 d after ischemia); 1.74 ± 0.26 in assay [2] (4 d after ischemia); 1.63 ± 0.20 in assay [2] (5 d after ischemia). Besides, the “Neurobehavioral score (0 to 4 points)” value in assay [2] (6 d after ischemia) is 1.78 ± 0.34; in assay [2] (7 d after ischemia), 1.01 ± 0.27.

On to `CC1(C)CCN(c2ccc(-c3cc(=O)c4ccc(O)c(O)c4o3)cc2)CC1` [Example 4, 2-(4-(4,4-dimethylpiperidin-1-yl)phenyl)-7,8-dihydroxy-4H-chromen-4-one], for which the “Relative intensity of p-TrkB/t-TrkB protein” value in assay [1] worked out at 216.198 ± 8.865. Moreover, the “Neurobehavioral score (0 to 4 points)” value in assay [2] (6 h after ischemia) is on record as 2.23 ± 0.36; in assay [2] (1 d after ischemia) it was 1.99 ± 0.36; in assay [2] (2 d after ischemia), 1.85 ± 0.45; in assay [2] (3 d after ischemia), 2.23 ± 0.36; in assay [2] (4 d after ischemia), 1.54 ± 0.27; in assay [2] (5 d after ischemia), 1.78 ± 0.11. Besides, the results for the “Neurobehavioral score (0 to 4 points)” value in assay [2] (6 d after ischemia) and in assay [2] (7 d after ischemia) were 1.68 ± 0.27 and 1.12 ± 0.23, respectively.

Take `CC1CC(C)CN(c2ccc(-c3cc(=O)c4ccc(O)c(O)c4o3)cc2)C1` (stereo not drawn) [Example 5, 2-(4-(3,5-dimethylpiperidin-1-yl)phenyl)-7,8-dihydroxy-4H-chromen-4-one]: in assay [1], the “Relative intensity of p-TrkB/t-TrkB protein” value is reported as 213.254 ± 12.379. The “Neurobehavioral score (0 to 4 points)” value in assay [2] (6 h after ischemia) was 2.03 ± 0.29; in assay [2] (1 d after ischemia), 1.86 ± 0.44; in assay [2] (2 d after ischemia), 1.75 ± 0.25; in assay [2] (3 d after ischemia) it was 1.94 ± 0.23; in assay [2] (4 d after ischemia), 1.85 ± 0.34; in assay [2] (5 d after ischemia), 1.93 ± 0.20. The “Neurobehavioral score (0 to 4 points)” value is listed as 1.72 ± 0.44 in assay [2] (6 d after ischemia) and 1.19 ± 0.30 in assay [2] (7 d after ischemia).
